# Measured values from US11752155B2, “Treatment of autism spectrum disorders, obsessive-compulsive disorder and anxiety disorders” (Rugen Holdings (Cayman) Limited, priority 2016, dated 2023).
# Where “and” joins values, the source holds several entries; their conditions need not be identical. Identical values can stand only once. Entries after “also recorded” stand apart in the source; their conditions may differ. Like-named read-outs stand apart in the source and are kept apart here.
# Tests used:
# [1] = target: CYP2D6 (Homo sapiens (Human), UniProt P10635); assay: CYP P450 enzyme inhibition in pooled human liver microsomes (dextromethorphan probe); format: in vitro ADME; settings: for inhibition at 10 min, 10 µM: human, pooled human liver microsomes, pH 7.4, probe dextromethorphan, 5 μM, read-out: CYP2D6 Inhibiton at 10 μM
# Chain of CYP2D6 (P10635 whole entry): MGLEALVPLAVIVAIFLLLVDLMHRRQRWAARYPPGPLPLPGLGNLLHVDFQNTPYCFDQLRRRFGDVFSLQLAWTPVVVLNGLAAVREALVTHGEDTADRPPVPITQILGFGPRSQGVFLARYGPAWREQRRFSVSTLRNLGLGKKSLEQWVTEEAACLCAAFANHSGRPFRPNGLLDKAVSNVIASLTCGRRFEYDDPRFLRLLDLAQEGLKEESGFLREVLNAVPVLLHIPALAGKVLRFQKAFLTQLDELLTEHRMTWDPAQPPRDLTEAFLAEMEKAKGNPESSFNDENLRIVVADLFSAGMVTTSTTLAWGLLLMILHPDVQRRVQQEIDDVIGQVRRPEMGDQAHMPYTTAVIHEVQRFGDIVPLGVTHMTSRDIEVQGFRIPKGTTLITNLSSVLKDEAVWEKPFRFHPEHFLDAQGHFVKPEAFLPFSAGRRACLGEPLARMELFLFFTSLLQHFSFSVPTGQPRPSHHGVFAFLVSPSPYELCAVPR
# Experimental: Test compound concentration-dependent response studies were performed in triplicate.
# [2] = test system: Sapap3 knockout mice; assay: Grooming Test in Sapap3 knockout mice; format: in vivo, mouse; settings: for acute effect on excessive self-grooming: single IP dose, Day 1; for tachyphylaxis with repeated weekly dosing: dosed IP on Days 1, 15, 22, 29
# Experimental: (§1) Animals. The breeding conditions and genotyping methods for Sapap3 and Shank3 complete knockout mice were the same as described in Welch et al. (Nature 2007, 448(7156):894-900) and in Wang et al. (Nat. Commun. 2016, 7:11459), respectively. Homozygous knockout mice and littermate wild type mice of both genders were used at 4 to 8 weeks of age.
# (§2) Compound formulation. The test compounds were dissolved in a small volume of dimethyl sulfoxide (DMSO) and diluted in an aqueous solution of 2-hydroxypropyl-beta-cyclodextrin (HP-β-CD) and administered IP. Dosing volume was 10 mL/kg. At 20 minutes after dosing, the mice were subjected to the behavioral test as described below.
# (§3) Testing room and apparatus. The test room was maintained under the same conditions as the colony rooms, except the mice were housed in conventional shoe-box cages with food, water, and nesting materials. Animals were housed in the test room 48-72 hours prior to testing, in order to permit the mice to fully acclimate to the test room and conventional housing cages before testing. Tests were conducted in white polyvinyl-fluoride hard-sided foam test arenas (20×20×12 cm). The arenas were indirectly illuminated by dimmable LED light bars placed level with the arena floor and 30 cm away from the external wall of the test arena. This permitted the internal area of the arena to be evenly illuminated at approximately 40 lux. The illumination levels where the mice were housed before testing were about 80-100 lux.
# (§4) Testing procedure. Mice were carefully placed into the test arenas 20 minutes after compound administration. Animals were given free exploration of the arena for 10 minutes, after which they were gently sprayed with 4 quick pumps of a water mist (total water volume approximated 1.5-1.7 mL). Mice were then allowed an additional 10 minutes to self-groom and engage in other behaviors before being removed from the arena. All tests were videotaped using cameras mounted above the testing arena and were saved to digital media format using Noldus Media Player software (Noldus Information Technologies, Leesburg, Va.). The mice were only tested once in the acute studies and were repeatedly tested in the sustained effect studies.
# (§5) Quantitation of grooming bouts. Analyses of the video recordings were conducted with TopScan behavioral recognition software (Cleversys Inc, Reston, Va.). Configurations were made which scored time spent in grooming. […] These settings permitted automated scoring of grooming by TopScan that corresponded well to manual-scoring of these behaviors by a trained blinded observer using Noldus Observer XT9 (Noldus Information Technologies), with an average corrected kappa of 0.925 (range 0.807-0.983).
# (§6) Statistical analyses. Data are presented as means and standard error of the means (SEMs). Analyses were conducted using SPSS 23 (IBM SPSS Statistics, Chicago, Ill.). Time spent in grooming behavior (seconds) over the 10-minute pre- and post-spray time blocks were analyzed with repeated measures analyses of variance (RMANOVA). The pre- and post-spray times were used for the within subject effects and the genotype and compound treatment condition were used as the between subject effects. In sustained effect studies, days were also used for a within subject effect. Some analyses of total groom time were performed in Prism 7.01 (GraphPad Software, La Jolla, Calif.), with one-way ANOVAs to compare genotypes on Day 1 or with RMANOVAs to compare treatment groups within the same genotype across days. Treatments with compounds were compared independently with the vehicle. All post-hoc comparisons were performed with Bonferroni corrections for multiple comparisons to avoid a Type I error. In all cases, a p<0.05 was considered significant.
# Next, the effect of two subunit-selective NR2B antagonists administered as a single IP dose and assessed 20 minutes postdose was studied in the Sapap3 knockout mice (n=6-10 mice per treatment group). […]
# [3] = test system: wild type littermate mice; assay: Grooming Test in wild type littermates of Sapap3 and Shank3 complete knockout mice; format: in vivo, mouse; settings: for effect on grooming on Day 3 / effect on grooming on Day 5: 3 mg/kg IP on Day 1, wild type littermates; for effect on grooming on Day 1: 3 mg/kg IP, wild type littermates; for acute effect on grooming on Day 1: wild type littermates of Sapap3 knockout mice, dose-dependent
# Experimental: as §1, §2, §3, §4, §5, §6
# The wild type littermates of the Sapap3 knockout and Shank3 complete knockout mice were retested after Day 1 compound administration to determine whether the sustained effects were unique to the knockout mice. […]
# [4] = target: hERG channel (Homo sapiens (Human), UniProt Q12809); assay: hERG channel inhibition, whole cell patch clamp in HEK293 cells; format: cell-based; settings: for inhibition at 5 min, 10 µM: human, HEK293 cells stably expressing hERG channel, pH 7.35
# Chain of hERG channel (Q12809 whole entry): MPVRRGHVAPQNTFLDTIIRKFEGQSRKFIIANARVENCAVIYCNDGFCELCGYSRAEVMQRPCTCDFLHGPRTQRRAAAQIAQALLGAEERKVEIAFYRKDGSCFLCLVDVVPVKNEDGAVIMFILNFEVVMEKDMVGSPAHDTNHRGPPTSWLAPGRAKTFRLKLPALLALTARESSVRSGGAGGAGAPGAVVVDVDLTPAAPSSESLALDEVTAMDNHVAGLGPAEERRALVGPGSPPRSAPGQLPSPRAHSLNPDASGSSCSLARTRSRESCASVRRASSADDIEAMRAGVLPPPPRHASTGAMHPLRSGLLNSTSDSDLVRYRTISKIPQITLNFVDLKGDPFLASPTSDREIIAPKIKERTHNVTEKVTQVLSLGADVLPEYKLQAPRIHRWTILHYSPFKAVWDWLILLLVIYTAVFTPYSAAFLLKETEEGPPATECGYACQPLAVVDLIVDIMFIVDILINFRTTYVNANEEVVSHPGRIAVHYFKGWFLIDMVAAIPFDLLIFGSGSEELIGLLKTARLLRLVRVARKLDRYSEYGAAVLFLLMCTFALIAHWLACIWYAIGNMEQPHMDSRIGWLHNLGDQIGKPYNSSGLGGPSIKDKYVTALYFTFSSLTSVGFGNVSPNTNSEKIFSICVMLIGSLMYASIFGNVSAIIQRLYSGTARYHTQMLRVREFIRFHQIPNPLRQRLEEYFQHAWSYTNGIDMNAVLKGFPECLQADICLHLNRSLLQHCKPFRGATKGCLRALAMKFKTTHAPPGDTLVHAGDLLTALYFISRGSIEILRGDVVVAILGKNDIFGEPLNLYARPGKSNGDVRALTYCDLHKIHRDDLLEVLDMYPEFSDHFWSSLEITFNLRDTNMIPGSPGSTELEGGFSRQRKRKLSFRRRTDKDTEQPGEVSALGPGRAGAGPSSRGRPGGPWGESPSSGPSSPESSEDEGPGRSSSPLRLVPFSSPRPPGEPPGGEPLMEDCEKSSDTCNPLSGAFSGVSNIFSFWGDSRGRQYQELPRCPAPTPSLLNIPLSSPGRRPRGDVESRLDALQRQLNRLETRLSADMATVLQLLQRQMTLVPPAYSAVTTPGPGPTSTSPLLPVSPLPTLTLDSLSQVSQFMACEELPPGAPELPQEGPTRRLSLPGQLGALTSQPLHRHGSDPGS
# [5] = test system: wild type mice (male C57Bl/6); assay: Novelty Phobia Test in wild type mice; format: in vivo, mouse; settings: for change in vivo at 3 mg/kg / change in vivo at 10 mg/kg / change in vivo at 30 mg/kg / change in vivo at 0.3 mg/kg / change in vivo at 1 mg/kg: Mus musculus, ip, IP, read-out: Percent Change in Novel Object Number of Nose Touches relative to vehicle control; for pattern of the dose-response function for bouts of nose touching: mouse, in vivo
# Experimental: Animals. Male C57Bl/6 mice (18-30 g body weight; 6-8 weeks of age) were obtained from Slaccas (Shanghai, China) and allowed to acclimate to the animal facility for 7 days. Mice were group housed in plastic cages (no more than 4 animals per cage) on wood shavings with nesting material. All animals had free access to food (M01-F, Slaccas) and water. The animal facility was maintained under artificial lighting between 7:00 AM and 7:00 PM in a controlled ambient temperature of 22-24° C. and relative humidity between 50-60%.
# Compound formulation. The test compounds were prepared in a vehicle of DMSO and HP-β-CD, and administered IP or PO. The test compounds or vehicle were administered at various times (10-20 minutes) before the behavioral test described below. Dosing volume was 10 mL/kg.
# Testing procedure. The behavioral testing apparatus was a rectangular black Plexiglas, 2-chambered box, with no top or bottom (50 cm long, 26 cm wide and 15 cm tall) and allowed for the simultaneous testing of 2 mice. The box was placed on a laboratory bench. The chambers of the testing box were cleaned and fresh paper chip bedding was added between tests. Mice were brought to the experiment room in their home cages on the day of testing. Behavioral tests were conducted between 10:00 AM and 1:00 PM in dim light. After drug administration, a mouse was placed into a test chamber and allowed to explore for 10 minutes. After this habituation period, a novel object (e.g., a toy ball of 3 cm in diameter with spikes) was introduced to the center of the chamber for 5 minutes. For the entire 15-minute test period, video was recorded for offline analysis with Any-maze Video Tracking software (Stoelting Co., Wood Dale, Ill.). The total distance traveled during the entire 15 minutes and the number of bouts that each mouse touched the novel object during the last 5 minutes were measured.
# Statistical analyses. Data are presented as means and SEMs. Data were analyzed using one-way analysis of variance (ANOVA; Prism, GraphPad Software Inc., San Diego, Calif.), followed by the post-hoc Dunnett's test to compare test compound-treated groups with the vehicle control. A p value<0.05 was considered significant.
# [6] = single dose 1 mg/kg IP on Day 1
"inhibition at 10 min, 10 µM [1]",Compound,significantly reduced grooming through Day ([2]; first dose 3 mg/kg IP on Day 1),acute effect on excessive self-grooming ([2]; 20 min postdose),"significantly reduced grooming through Day [2, 6]",effect on grooming on Day 3 [3],effect on grooming on Day 5 [3],effect on grooming on Day 1 [3],acute effect on grooming on Day 1 [3],IC50 ([4]; Table 1.3B),"change in vivo at 3 mg/kg ([5]; 20 min, pre-test time 20 min)","change in vivo at 10 mg/kg ([5]; 20 min, pre-test time 20 min)","change in vivo at 30 mg/kg ([5]; 20 min, pre-test time 20 min)",tachyphylaxis with repeated weekly dosing [2],pattern of the dose-response function for bouts of nose touching [5],"inhibition at 5 min, 10 µM [4]",also measured
–,Cc1ccc(COC(=O)N2CC[C@H](CNc3ncccn3)C(F)(F)C2)cc1 [E1-22.2^B′],22 days,significantly reduced grooming,19 days,significantly reduced grooming,comparable to the level in the vehicle-treated group,significantly reduced grooming,significantly reduced grooming,> 10 µM and 17 µM,163%,115%,98.9%,–,–,–,IC50 ([1]; Table 1.4B): > 50 µM
–,FC(F)c1ccc(C(F)(F)CN2CCC(Nc3ncnc4[nH]ccc34)CC2)cc1 [C-179^A′],8 days,significantly reduced grooming; also recorded: markedly reduced excessive self-grooming,5 days,significantly reduced grooming,comparable to the level in the vehicle-treated group,significantly reduced grooming,significantly reduced grooming,–,164%,–,–,no tachyphylaxis developed; also recorded: tachyphylaxis was not observed,inverted U-shaped dose-response function,–,"magnitude of the reduction in self-grooming ([2]; 1 mg/kg IP, pre-spray): 43.6%; magnitude of the reduction in self-grooming ([2]; 3 mg/kg IP, pre-spray): 80.5%; magnitude of the reduction in self-grooming ([2]; 10 mg/kg IP, pre-spray): 91.7%; reductions in self-grooming ([2]; 1, 3 and 10 mg/kg IP, post-spray): 66.9% to 77.6%; significantly reduced grooming through Day ([2]; single dose 0.32 mg/kg IP on Day 1): 5 days; significantly reduced grooming through Day ([2]; single dose 0.56 mg/kg IP on Day 1): 5 days; sustained efficacy lasting for ([2]; single dose of 3 mg/kg IP): 1 week; IC50 ([4]; Table 1.3A): 1.4 µM; change in vivo at 0.3 mg/kg ([5]; 0.25 h, pre-test time 15 min): -12%; change in vivo at 1 mg/kg ([5]; 0.25 h, pre-test time 15 min): 64.7%; change in vivo at 30 mg/kg ([5]; 0.25 h, pre-test time 15 min): 28%; change in vivo at 0.3 mg/kg ([5]; 20 min, pre-test time 20 min): 51.7%; change in vivo at 1 mg/kg ([5]; 20 min, pre-test time 20 min): 139%"
32%,Cc1ccc(COC(=O)N2CC[C@H](CNc3cnc(C)cn3)C(F)(F)C2)cc1 [E1-21.26^B′],5 days,significantly reduced grooming,–,–,–,–,significantly reduced grooming,–,141%,149%,171%,without tachyphylaxis,dose-dependent increases,39%,"effects lasting through Day after the fourth and final dose on Day 29 ([2]; 3 mg/kg IP on Days 1, 15, 22, 29): 40 days; effects lasting through Day after the fourth and final dose on Day 29 ([2]; 10 mg/kg IP on Days 1, 15, 22, 29): 43 days; significant reduction in grooming wore off by Day ([2]; first dose of 3 mg/kg IP): 8 days"
14%,Cc1ccc(COC(=O)N2CC[C@H](CNc3nccn4cnnc34)C(F)(F)C2)cc1 [E1-1.2^B′],–,markedly reduced excessive self-grooming,–,–,–,–,–,40 µM,–,–,–,–,dose-dependent increases,17%,"magnitude of the reduction in self-grooming ([2]; 3 mg/kg IP, 20 min postdose, pre- and post-spray): 70%-80%; magnitude of the reduction in self-grooming ([2]; 10 mg/kg IP, 20 min postdose, pre- and post-spray): > 90%; magnitude of the reduction in self-grooming ([2]; 30 mg/kg IP, 20 min postdose, pre- and post-spray): > 90%; change in vivo at 0.3 mg/kg ([5]; 10 min, pre-test time 10 min): 16.1%; change in vivo at 10 mg/kg ([5]; 10 min, pre-test time 10 min): 218%"
